Assays:
Experiment in all cases: relative viability (nuclei count vs DMSO), 5 days (fraction); higher = more cells survive
NCI-H2228 = system: NCI-H2228
In short: (§1)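 Lung cancer cell lines in 1536-well plates were dosed by pin tool the day after seeding, either with one drug alone or with a fixed anchor-drug dose plus five library-drug doses (not always all listed) in √10 steps. After 5 days, cells were fixed and their nuclei stained in one step (final 0.05% Triton X-100, 1% formaldehyde, 1 ug/ml Hoechst), then counted on 4× images. Relative viability is the nuclei count in treated wells divided by that in vehicle wells. Values are medians of duplicate plates.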

NCI-H2170 = system: NCI-H2170
In short: as §1

NCI-H1792 = system: NCI-H1792
In short: as §1

NCI-H2009 = system: NCI-H2009
In short: as §1

NCI-H1734 = system: NCI-H1734
In short: as §1

EKVX = system: EKVX
In short: as §1

NCI-H596 = system: NCI-H596
In short: as §1

NCI-H2342 = system: NCI-H2342
In short: as §1

NCI-H2405 = system: NCI-H2405
In short: as §1

HARA = system: HARA
In short: as §1

NCI-H647 = system: NCI-H647
In short: as §1

NCI-H2087 = system: NCI-H2087
In short: as §1

LOU-NH91 = system: LOU-NH91
In short: as §1

NCI-H1395 = system: NCI-H1395
In short: as §1

NCI-H1355 = system: NCI-H1355
In short: as §1

BEN = system: BEN
In short: as §1

SK-MES-1 = system: SK-MES-1
In short: as §1

SK-LU-1 = system: SK-LU-1
In short: as §1

LC-2-ad = system: LC-2-ad
In short: as §1

NCI-H1437 = system: NCI-H1437
In short: as §1

NCI-H661 = system: NCI-H661
In short: as §1

HCC-44 = system: HCC-44
In short: as §1

HCC-827 = system: HCC-827
In short: as §1

HCC-366 = system: HCC-366
In short: as §1

For `C[C@@H]1CN(CC(=O)Nc2ccc3c(c2)Cc2cccc(-c4cc(=O)cc(N5CCOCC5)o4)c2S3)C[C@H](C)O1` + O=C(c1cc(Cc2n[nH]c(=O)c3ccccc23)ccc1F)N1CCN(C(=O)C2CC2)CC1 [Olaparib] (partner 8 µM), the relative viability (NCI-H2228; first compound 0.04 µM) was 0.781, the relative viability (NCI-H2228; first compound 0.1265 µM) was 0.505 and the relative viability (NCI-H2228; first compound 0.4 µM) was 0.571. The relative viability (NCI-H2228; first compound 4 µM) was 0.174, the relative viability (NCI-H2170; first compound 0.04 µM) was 0.648 and the relative viability (NCI-H2170; first compound 0.1265 µM) was 0.609. The relative viability (NCI-H2170; first compound 0.4 µM) was 0.578, the relative viability (NCI-H2170; first compound 4 µM) was 0.523 and the relative viability (NCI-H1792; first compound 0.04 µM) was 0.715. It also gave a relative viability (NCI-H1792; first compound 0.1265 µM) of 0.407, a relative viability (NCI-H1792; first compound 0.4 µM) of 0.315 and a relative viability (NCI-H1792; first compound 4 µM) of 0.102. It also gave a relative viability (NCI-H2009; first compound 0.04 µM) of 0.71, a relative viability (NCI-H2009; first compound 0.1265 µM) of 0.691 and a relative viability (NCI-H2009; first compound 0.4 µM) of 0.649. For the same compound, the relative viability (NCI-H2009; first compound 4 µM) was 0.274, the relative viability (NCI-H1734; first compound 0.04 µM) was 0.73 and the relative viability (NCI-H1734; first compound 0.1265 µM) was 0.573. For the same compound, the relative viability (NCI-H1734; first compound 0.4 µM) was 0.613, the relative viability (NCI-H1734; first compound 4 µM) was 0.551 and the relative viability (EKVX; first compound 0.04 µM) was 0.862. The relative viability (EKVX; first compound 0.1265 µM) was 0.921, the relative viability (EKVX; first compound 0.4 µM) was 0.914 and the relative viability (EKVX; first compound 4 µM) was 0.399. The relative viability (NCI-H596; first compound 0.04 µM) was 0.601, the relative viability (NCI-H596; first compound 0.1265 µM) was 0.624 and the relative viability (NCI-H596; first compound 0.4 µM) was 0.641. It also gave a relative viability (NCI-H596; first compound 4 µM) of 0.486, a relative viability (NCI-H2342; first compound 0.04 µM) of 0.567 and a relative viability (NCI-H2342; first compound 0.1265 µM) of 0.52. It also gave a relative viability (NCI-H2342; first compound 0.4 µM) of 0.52, a relative viability (NCI-H2342; first compound 4 µM) of 0.419 and a relative viability (NCI-H2405; first compound 0.04 µM) of 0.938. It also gave a relative viability (NCI-H2405; first compound 0.1265 µM) of 0.93, a relative viability (NCI-H2405; first compound 0.4 µM) of 0.837 and a relative viability (NCI-H2405; first compound 4 µM) of 0.578. It also gave a relative viability (HARA; first compound 0.04 µM) of 0.932, a relative viability (HARA; first compound 0.1265 µM) of 0.779 and a relative viability (HARA; first compound 0.4 µM) of 0.87. It also gave a relative viability (HARA; first compound 4 µM) of 0.22, a relative viability (NCI-H647; first compound 0.04 µM) of 0.611 and a relative viability (NCI-H647; first compound 0.1265 µM) of 0.436. It also gave a relative viability (NCI-H647; first compound 0.4 µM) of 0.417, a relative viability (NCI-H647; first compound 4 µM) of 0.0936 and a relative viability (NCI-H2087; first compound 0.04 µM) of 0.649. It also gave a relative viability (NCI-H2087; first compound 0.1265 µM) of 0.546, a relative viability (NCI-H2087; first compound 0.4 µM) of 0.602 and a relative viability (NCI-H2087; first compound 4 µM) of 0.214. It also gave a relative viability (LOU-NH91; first compound 0.04 µM) of 0.938, a relative viability (LOU-NH91; first compound 0.1265 µM) of 0.964 and a relative viability (LOU-NH91; first compound 0.4 µM) of 0.907. The relative viability (LOU-NH91; first compound 4 µM) was 0.721, the relative viability (NCI-H1395; first compound 0.1265 µM) was 0.482 and the relative viability (NCI-H1395; first compound 0.4 µM) was 0.506. It also gave a relative viability (NCI-H1395; first compound 4 µM) of 0.458, a relative viability (NCI-H1355; first compound 0.04 µM) of 0.783 and a relative viability (NCI-H1355; first compound 0.1265 µM) of 0.699. For the same compound, the relative viability (NCI-H1355; first compound 0.4 µM) was 0.664, the relative viability (NCI-H1355; first compound 4 µM) was 0.482 and the relative viability (BEN; first compound 0.04 µM) was 0.969. It also gave a relative viability (BEN; first compound 0.1265 µM) of 1.13, a relative viability (BEN; first compound 0.4 µM) of 1.11 and a relative viability (BEN; first compound 4 µM) of 0.69. It also gave a relative viability (SK-MES-1; first compound 0.04 µM) of 0.78, a relative viability (SK-MES-1; first compound 0.1265 µM) of 0.721 and a relative viability (SK-MES-1; first compound 0.4 µM) of 0.686. For the same compound, the relative viability (SK-MES-1; first compound 4 µM) was 0.252, the relative viability (SK-LU-1; first compound 0.04 µM) was 0.566 and the relative viability (SK-LU-1; first compound 0.1265 µM) was 0.667. For the same compound, the relative viability (SK-LU-1; first compound 0.4 µM) was 0.575, the relative viability (SK-LU-1; first compound 4 µM) was 0.219 and the relative viability (LC-2-ad; first compound 0.04 µM) was 0.657. It also gave a relative viability (LC-2-ad; first compound 0.1265 µM) of 0.653, a relative viability (LC-2-ad; first compound 0.4 µM) of 0.689 and a relative viability (LC-2-ad; first compound 4 µM) of 0.433. It also gave a relative viability (NCI-H1437; first compound 0.04 µM) of 0.613, a relative viability (NCI-H1437; first compound 0.1265 µM) of 0.635 and a relative viability (NCI-H1437; first compound 0.4 µM) of 0.598. For the same compound, the relative viability (NCI-H1437; first compound 4 µM) was 0.352, the relative viability (NCI-H661; first compound 0.04 µM) was 0.814 and the relative viability (NCI-H661; first compound 0.1265 µM) was 0.77. For the same compound, the relative viability (NCI-H661; first compound 0.4 µM) was 0.784, the relative viability (NCI-H661; first compound 4 µM) was 0.622 and the relative viability (HCC-44; first compound 0.04 µM) was 0.94. It also gave a relative viability (HCC-44; first compound 0.1265 µM) of 1.02, a relative viability (HCC-44; first compound 0.4 µM) of 0.955 and a relative viability (HCC-44; first compound 4 µM) of 0.969. For the same compound, the relative viability (HCC-827; first compound 0.04 µM) was 0.674, the relative viability (HCC-827; first compound 0.1265 µM) was 0.653 and the relative viability (HCC-827; first compound 0.4 µM) was 0.678. For the same compound, the relative viability (HCC-827; first compound 4 µM) was 0.438, the relative viability (HCC-366; first compound 0.04 µM) was 0.43 and the relative viability (HCC-366; first compound 0.1265 µM) was 0.489. The relative viability (HCC-366; first compound 0.4 µM) was 0.44 and the relative viability (HCC-366; first compound 4 µM) was 0.055.
